Experimental data as given in ChEMBL document CHEMBL4507310, “Data for DCP probe A-1211212” (2021).

Experiments:
[1] = system: Receptor-type tyrosine-protein kinase FLT3 (Homo sapiens), P36888 [D835Y]; conditions: Compound concentration 1000.0 nM
[2] = molecular target: Mitogen-activated protein kinase kinase kinase 2 (Homo sapiens) (UniProt Q9Y2U5); conditions: Compound concentration 1000.0 nM
[3] = molecular target: Protein kinase C theta type (Homo sapiens) (UniProt Q04759); conditions: Compound concentration 1000.0 nM
Chain of Protein kinase C theta type (Homo sapiens) (Q04759 whole entry, looked up): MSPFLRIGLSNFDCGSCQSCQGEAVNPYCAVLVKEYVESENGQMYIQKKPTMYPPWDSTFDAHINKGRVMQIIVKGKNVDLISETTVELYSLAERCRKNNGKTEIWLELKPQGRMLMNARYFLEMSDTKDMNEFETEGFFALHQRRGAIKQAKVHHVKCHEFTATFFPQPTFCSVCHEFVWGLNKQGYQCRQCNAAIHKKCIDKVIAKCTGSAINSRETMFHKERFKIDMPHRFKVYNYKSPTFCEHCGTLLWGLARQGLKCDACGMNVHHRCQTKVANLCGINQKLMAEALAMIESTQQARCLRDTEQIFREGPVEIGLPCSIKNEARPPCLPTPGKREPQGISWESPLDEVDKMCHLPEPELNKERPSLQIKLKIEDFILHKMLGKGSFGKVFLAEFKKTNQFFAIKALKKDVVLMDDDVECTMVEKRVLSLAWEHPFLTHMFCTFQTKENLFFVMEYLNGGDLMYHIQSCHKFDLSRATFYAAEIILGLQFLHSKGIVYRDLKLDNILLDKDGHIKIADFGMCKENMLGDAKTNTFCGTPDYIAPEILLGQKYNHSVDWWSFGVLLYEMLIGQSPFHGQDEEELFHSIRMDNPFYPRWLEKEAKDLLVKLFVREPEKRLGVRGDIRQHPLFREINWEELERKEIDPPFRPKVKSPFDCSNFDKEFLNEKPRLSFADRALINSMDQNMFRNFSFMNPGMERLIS

[4] = molecular target: Calcium/calmodulin-dependent protein kinase type 1D (Homo sapiens) (UniProt Q8IU85); conditions: Compound concentration 1000.0 nM
[5] = molecular target: Vasopressin V1a receptor (Homo sapiens) (UniProt P37288); assay: V1 a (h) Eurofins-Cerep binding assay; set-up: ligand concentration 0.3 nM; conditions: filed as agonist, Compound concentration 10.0 uM
[6] = molecular target: Interferon-induced, double-stranded RNA-activated protein kinase (Homo sapiens) (UniProt P19525); conditions: Compound concentration 1000.0 nM
[7] = molecular target: Kappa-type opioid receptor (Homo sapiens) (UniProt P41145); assay: kappa (h) (KOP) Eurofins-Cerep binding assay; set-up: ligand concentration 0.5 nM; conditions: filed as agonist, Compound concentration 10.0 uM
[8] = molecular target: Phosphatidylinositol 4-kinase beta (Homo sapiens) (UniProt Q9UBF8); conditions: Compound concentration 1000.0 nM
Chain of Phosphatidylinositol 4-kinase beta (Homo sapiens) (Q9UBF8 2-816 limits assumed): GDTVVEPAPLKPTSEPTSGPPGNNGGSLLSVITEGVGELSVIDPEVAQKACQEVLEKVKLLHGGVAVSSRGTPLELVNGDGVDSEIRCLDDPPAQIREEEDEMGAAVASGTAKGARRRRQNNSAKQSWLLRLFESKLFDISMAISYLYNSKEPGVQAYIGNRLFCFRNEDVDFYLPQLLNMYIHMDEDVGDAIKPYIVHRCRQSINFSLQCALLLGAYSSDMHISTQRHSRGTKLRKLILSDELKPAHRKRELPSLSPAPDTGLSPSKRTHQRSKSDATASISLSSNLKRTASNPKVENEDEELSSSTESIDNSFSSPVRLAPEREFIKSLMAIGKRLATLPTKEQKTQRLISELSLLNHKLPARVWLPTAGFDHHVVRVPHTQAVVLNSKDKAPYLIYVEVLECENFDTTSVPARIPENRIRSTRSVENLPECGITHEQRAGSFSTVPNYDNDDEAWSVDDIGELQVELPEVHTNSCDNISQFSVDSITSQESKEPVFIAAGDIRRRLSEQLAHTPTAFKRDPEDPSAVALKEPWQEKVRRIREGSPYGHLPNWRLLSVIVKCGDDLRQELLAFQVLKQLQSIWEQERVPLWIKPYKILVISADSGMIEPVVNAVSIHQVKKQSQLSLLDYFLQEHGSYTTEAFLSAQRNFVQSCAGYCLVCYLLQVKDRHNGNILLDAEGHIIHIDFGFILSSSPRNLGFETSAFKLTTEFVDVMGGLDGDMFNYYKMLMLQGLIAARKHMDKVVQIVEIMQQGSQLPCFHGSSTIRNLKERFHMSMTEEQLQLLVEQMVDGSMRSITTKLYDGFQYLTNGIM

[9] = molecular target: Platelet-derived growth factor receptor beta (Homo sapiens) (UniProt P09619); conditions: Compound concentration 1000.0 nM
[10] = molecular target: Serine/threonine-protein kinase RIO2 (Homo sapiens) (UniProt Q9BVS4); conditions: Compound concentration 1000.0 nM
[11] = molecular target: 5-hydroxytryptamine receptor 2A (Homo sapiens) (UniProt P28223); assay: 5-HT2A (h) Eurofins-Cerep binding assay; set-up: ligand concentration 0.5 nM; conditions: filed as antagonist, Compound concentration 10.0 uM
Chain of 5-hydroxytryptamine receptor 2A (Homo sapiens) (P28223 whole entry): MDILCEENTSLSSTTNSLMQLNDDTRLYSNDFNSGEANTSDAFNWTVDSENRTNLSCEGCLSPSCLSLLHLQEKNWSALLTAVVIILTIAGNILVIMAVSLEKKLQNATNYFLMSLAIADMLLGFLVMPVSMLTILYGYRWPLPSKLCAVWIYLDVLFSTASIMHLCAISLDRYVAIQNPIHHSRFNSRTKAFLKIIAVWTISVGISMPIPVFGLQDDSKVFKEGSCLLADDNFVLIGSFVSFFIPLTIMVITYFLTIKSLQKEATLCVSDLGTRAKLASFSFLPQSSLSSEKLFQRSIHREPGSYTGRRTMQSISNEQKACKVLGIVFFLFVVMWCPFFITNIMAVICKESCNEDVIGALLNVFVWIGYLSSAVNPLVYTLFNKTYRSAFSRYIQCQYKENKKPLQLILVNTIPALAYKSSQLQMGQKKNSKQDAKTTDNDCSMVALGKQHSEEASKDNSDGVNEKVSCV

[12] = molecular target: Glucocorticoid receptor (Homo sapiens) (UniProt P04150); assay: GR (h) Eurofins-Cerep binding assay; set-up: ligand concentration 1.5 nM; conditions: filed as agonist, Compound concentration 10.0 uM
Chain of Glucocorticoid receptor (Homo sapiens) (P04150 whole entry): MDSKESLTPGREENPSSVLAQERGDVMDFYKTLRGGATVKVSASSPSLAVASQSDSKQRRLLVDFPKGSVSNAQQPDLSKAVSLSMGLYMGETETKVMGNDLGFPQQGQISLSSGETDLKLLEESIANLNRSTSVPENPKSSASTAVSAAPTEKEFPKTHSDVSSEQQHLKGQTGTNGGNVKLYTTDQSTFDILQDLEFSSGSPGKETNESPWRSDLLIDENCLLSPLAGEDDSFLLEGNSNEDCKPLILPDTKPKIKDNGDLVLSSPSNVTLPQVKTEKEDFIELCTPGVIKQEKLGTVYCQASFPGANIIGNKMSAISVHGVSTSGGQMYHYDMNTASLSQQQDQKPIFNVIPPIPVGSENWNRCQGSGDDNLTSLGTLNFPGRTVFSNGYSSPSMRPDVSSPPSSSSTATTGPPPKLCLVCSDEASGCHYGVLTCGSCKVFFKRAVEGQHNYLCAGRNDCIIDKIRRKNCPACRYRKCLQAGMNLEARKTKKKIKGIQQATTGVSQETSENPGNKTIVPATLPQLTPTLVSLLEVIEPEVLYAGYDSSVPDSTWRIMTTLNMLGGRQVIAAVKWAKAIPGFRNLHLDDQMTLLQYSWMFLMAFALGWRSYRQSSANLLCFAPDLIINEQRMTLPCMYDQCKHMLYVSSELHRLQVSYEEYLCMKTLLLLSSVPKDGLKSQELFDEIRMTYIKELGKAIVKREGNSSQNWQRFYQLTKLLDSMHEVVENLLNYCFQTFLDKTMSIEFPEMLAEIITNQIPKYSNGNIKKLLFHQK

[13] = molecular target: Calcium/calmodulin-dependent protein kinase kinase 1 (Homo sapiens) (UniProt Q8N5S9); conditions: Compound concentration 1000.0 nM
[14] = molecular target: D(2) dopamine receptor (Homo sapiens) (UniProt P14416); assay: D2S (h) Eurofins-Cerep binding assay; set-up: ligand concentration 0.3 nM; conditions: filed as antagonist, Compound concentration 10.0 uM
[15] = molecular target: Dual specificity tyrosine-phosphorylation-regulated kinase 2 (Homo sapiens) (UniProt Q92630); conditions: Compound concentration 1000.0 nM
[16] = molecular target: Cholecystokinin receptor type A (Homo sapiens) (UniProt P32238); assay: CCK1 (CCKA) (h) Eurofins-Cerep binding assay; set-up: ligand concentration 0.08 nM; conditions: filed as agonist, Compound concentration 10.0 uM
[17] = molecular target: Tyrosine-protein kinase Mer (Homo sapiens) (UniProt Q12866); conditions: Compound concentration 1000.0 nM
[18] = molecular target: Dual specificity protein kinase CLK2 (Homo sapiens) (UniProt P49760); conditions: Compound concentration 1000.0 nM
[19] = molecular target: Serine/threonine-protein kinase pim-2 (Homo sapiens) (UniProt Q9P1W9); conditions: Compound concentration 1000.0 nM
[20] = molecular target: Receptor-interacting serine/threonine-protein kinase 2 (Homo sapiens) (UniProt O43353); conditions: Compound concentration 1000.0 nM
[21] = molecular target: Ribosomal protein S6 kinase alpha-6 (Homo sapiens) (UniProt Q9UK32); conditions: Compound concentration 1000.0 nM
[22] = molecular target: Serine/threonine-protein kinase BRSK1 (Homo sapiens) (UniProt Q8TDC3); conditions: Compound concentration 1000.0 nM
Chain of Serine/threonine-protein kinase BRSK1 (Homo sapiens) (Q8TDC3 whole entry): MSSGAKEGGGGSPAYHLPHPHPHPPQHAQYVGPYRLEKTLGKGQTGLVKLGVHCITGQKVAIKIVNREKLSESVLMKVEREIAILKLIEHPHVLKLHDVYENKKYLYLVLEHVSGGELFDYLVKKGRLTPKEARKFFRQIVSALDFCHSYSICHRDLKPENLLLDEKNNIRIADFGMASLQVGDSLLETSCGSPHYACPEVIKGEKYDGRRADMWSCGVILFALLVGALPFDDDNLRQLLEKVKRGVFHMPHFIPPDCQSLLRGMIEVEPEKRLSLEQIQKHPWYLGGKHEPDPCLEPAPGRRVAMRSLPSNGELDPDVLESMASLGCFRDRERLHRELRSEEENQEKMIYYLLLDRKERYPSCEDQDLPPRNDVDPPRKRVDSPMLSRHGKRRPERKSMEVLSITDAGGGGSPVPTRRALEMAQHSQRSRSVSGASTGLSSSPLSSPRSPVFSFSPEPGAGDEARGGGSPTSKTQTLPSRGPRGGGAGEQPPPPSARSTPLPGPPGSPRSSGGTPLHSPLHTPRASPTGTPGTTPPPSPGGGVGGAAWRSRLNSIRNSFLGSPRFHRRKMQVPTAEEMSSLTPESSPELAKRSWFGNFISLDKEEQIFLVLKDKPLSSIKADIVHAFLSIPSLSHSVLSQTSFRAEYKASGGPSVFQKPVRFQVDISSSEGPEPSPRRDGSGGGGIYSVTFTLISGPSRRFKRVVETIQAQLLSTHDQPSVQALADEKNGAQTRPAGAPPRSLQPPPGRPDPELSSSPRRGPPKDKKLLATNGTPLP

[23] = molecular target: Macrophage-stimulating protein receptor (Homo sapiens) (UniProt Q04912); conditions: Compound concentration 1000.0 nM
[24] = system: Mast/stem cell growth factor receptor Kit (Homo sapiens), P10721 [D816H]; conditions: Compound concentration 1000.0 nM
[25] = molecular target: Cyclin-dependent kinase 17 (Homo sapiens) (UniProt Q00537); conditions: Compound concentration 1000.0 nM
[26] = molecular target: Serine/threonine-protein kinase 38 (Homo sapiens) (UniProt Q15208); conditions: Compound concentration 1000.0 nM
[27] = molecular target: Serine/threonine-protein kinase LATS2 (Homo sapiens) (UniProt Q9NRM7); conditions: Compound concentration 1000.0 nM
Chain of Serine/threonine-protein kinase LATS2 (Homo sapiens) (Q9NRM7 whole entry): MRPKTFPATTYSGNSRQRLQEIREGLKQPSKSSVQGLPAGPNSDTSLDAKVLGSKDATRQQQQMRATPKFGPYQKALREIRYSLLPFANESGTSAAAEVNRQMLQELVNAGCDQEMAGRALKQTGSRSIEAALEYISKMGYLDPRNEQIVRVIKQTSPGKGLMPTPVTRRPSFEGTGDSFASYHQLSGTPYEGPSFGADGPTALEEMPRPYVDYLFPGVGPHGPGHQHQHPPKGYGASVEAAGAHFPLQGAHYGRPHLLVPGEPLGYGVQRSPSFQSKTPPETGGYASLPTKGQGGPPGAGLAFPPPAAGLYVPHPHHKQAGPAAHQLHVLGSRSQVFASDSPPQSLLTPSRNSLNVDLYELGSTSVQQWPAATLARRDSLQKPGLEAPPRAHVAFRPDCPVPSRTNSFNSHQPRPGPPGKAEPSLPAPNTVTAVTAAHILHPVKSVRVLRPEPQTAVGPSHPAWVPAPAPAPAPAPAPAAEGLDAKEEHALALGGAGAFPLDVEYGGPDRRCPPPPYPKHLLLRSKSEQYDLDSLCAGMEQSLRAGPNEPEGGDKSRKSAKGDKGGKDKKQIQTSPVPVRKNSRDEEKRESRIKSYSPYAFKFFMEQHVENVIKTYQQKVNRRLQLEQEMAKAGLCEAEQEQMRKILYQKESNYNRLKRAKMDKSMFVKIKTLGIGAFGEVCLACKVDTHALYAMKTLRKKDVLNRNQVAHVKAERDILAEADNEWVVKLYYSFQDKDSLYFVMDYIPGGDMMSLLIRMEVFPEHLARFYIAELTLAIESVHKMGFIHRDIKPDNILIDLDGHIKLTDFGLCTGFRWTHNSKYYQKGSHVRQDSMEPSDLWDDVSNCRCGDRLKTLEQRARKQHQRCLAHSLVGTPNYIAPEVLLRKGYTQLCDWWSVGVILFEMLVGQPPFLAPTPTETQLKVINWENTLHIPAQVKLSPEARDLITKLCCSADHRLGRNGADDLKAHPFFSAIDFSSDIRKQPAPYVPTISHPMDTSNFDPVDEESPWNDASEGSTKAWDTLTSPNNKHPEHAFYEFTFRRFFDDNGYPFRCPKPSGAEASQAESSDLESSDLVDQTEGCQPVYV

[28] = molecular target: Serine/threonine-protein kinase WNK1 (Homo sapiens) (UniProt Q9H4A3); conditions: Compound concentration 1000.0 nM
[29] = molecular target: Cyclin-dependent kinase 5 (Homo sapiens) (UniProt Q00535); conditions: Compound concentration 1000.0 nM
Chain of Cyclin-dependent kinase 5 (Homo sapiens) (Q00535 whole entry, looked up): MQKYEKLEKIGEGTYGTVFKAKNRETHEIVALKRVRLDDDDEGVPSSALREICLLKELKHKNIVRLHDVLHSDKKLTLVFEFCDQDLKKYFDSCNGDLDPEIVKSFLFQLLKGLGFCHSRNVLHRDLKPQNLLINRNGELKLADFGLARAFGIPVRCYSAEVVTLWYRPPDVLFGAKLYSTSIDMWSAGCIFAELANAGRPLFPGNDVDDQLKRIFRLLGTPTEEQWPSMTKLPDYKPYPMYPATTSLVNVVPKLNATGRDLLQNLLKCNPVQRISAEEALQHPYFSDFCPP

[30] = molecular target: Tyrosine-protein kinase receptor TYRO3 (Homo sapiens) (UniProt Q06418); conditions: Compound concentration 1000.0 nM
[31] = molecular target: 5-hydroxytryptamine receptor 2A (Homo sapiens) (UniProt P28223); conditions: Compound concentration 10.0 uM
[32] = molecular target: Non-receptor tyrosine-protein kinase TYK2 (Homo sapiens) (UniProt P29597); conditions: Compound concentration 1000.0 nM
[33] = molecular target: Serine/threonine-protein kinase pim-1 (Homo sapiens) (UniProt P11309); conditions: Compound concentration 1000.0 nM
[34] = molecular target: MAO-B (amine oxidase [flavin-containing] B) (Homo sapiens, UniProt P27338); assay: MAO-B (h) recombinant enzyme Eurofins-Cerep enzyme and uptake assay; set-up: incubation time 60 min, incubation temperature 37°C, substrate/stimulus/tracer D-Luciferin derivative (4 µM); conditions: probe D-Luciferin derivative (4 µM), compound concentration 10 uM, read-out: % Inhibition of Control Values (Mean n=2)
[35] = system: Tyrosine-protein kinase ABL1 (Homo sapiens), P00519 [F317I]; conditions: Compound concentration 1000.0 nM
[36] = molecular target: Aurora kinase A (Homo sapiens) (UniProt O14965); conditions: Compound concentration 1000.0 nM
[37] = molecular target: Tyrosine-protein kinase receptor UFO (Homo sapiens) (UniProt P30530); conditions: Compound concentration 1000.0 nM
[38] = molecular target: Beta-2 adrenergic receptor (Homo sapiens) (UniProt P07550); assay: Beta2 (h) Eurofins-Cerep binding assay; set-up: ligand concentration 0.3 nM; conditions: filed as antagonist, Compound concentration 10.0 uM
[39] = molecular target: 5-hydroxytryptamine receptor 2B (Homo sapiens) (UniProt P41595); conditions: Compound concentration 10.0 uM
[40] = molecular target: Glutamate NMDA receptor (Rattus norvegicus) (UniProt P35439+Q00959+Q00960+Q00961+Q62645+Q8VHN2+Q9R1M7); assay: PCP Eurofins-Cerep binding assay; format: protein-complex assay; set-up: ligand concentration 10 nM; conditions: filed as antagonist, Compound concentration 10.0 uM
[41] = molecular target: Ephrin type-A receptor 3 (Homo sapiens) (UniProt P29320); conditions: Compound concentration 1000.0 nM
[42] = molecular target: Vascular endothelial growth factor receptor 3 (Homo sapiens) (UniProt P35916); conditions: Compound concentration 1000.0 nM
[43] = molecular target: Non-receptor tyrosine-protein kinase TNK1 (Homo sapiens) (UniProt Q13470); conditions: Compound concentration 1000.0 nM
[44] = system: Phosphatidylinositol 4,5-bisphosphate 3-kinase catalytic subunit alpha isoform (Homo sapiens), P42336 [H1047Y]; conditions: Compound concentration 1000.0 nM

## O=C(NS(=O)(=O)c1ccc(NCC2CCOCC2)c([N+](=O)[O-])c1)c1ccc(N2CCN(Cc3ccc(C(F)(F)F)cc3-c3ccc(Cl)cc3)CC2)cc1Oc1cnc2[nH]ccc2c1 [A-1210227]
[1]
  residual activity: 99%
[2]
  residual activity: 100%
[3]
  residual activity: 100%
[4]
  residual activity: 92%
[5]
  % Inhibition of Control Specific Binding (Mean n=2): 3.5%
[6]
  residual activity: 94%
[7]
  % Inhibition of Control Specific Binding (Mean n=2): 23.2%
[8]
  residual activity: 79%
[9]
  residual activity: 100%
[10]
  residual activity: 90%
[11]
  % Inhibition of Control Specific Binding (Mean n=2): -0.1%
[12]
  % Inhibition of Control Specific Binding (Mean n=2): -9.4%
[13]
  residual activity: 92%
[14]
  % Inhibition of Control Specific Binding (Mean n=2): 15.2%
[15]
  residual activity: 100%
[16]
  % Inhibition of Control Specific Binding (Mean n=2): -44.1%
[17]
  residual activity: 100%
[18]
  residual activity: 99%
[19]
  residual activity: 73%
[20]
  residual activity: 100%
[21]
  residual activity: 100%
[22]
  residual activity: 100%
[23]
  residual activity: 96%
[24]
  residual activity: 76%
[25]
  residual activity: 100%
[26]
  residual activity: 90%
[27]
  residual activity: 100%
[28]
  residual activity: 100%
[29]
  residual activity: 81%
[30]
  residual activity: 92%
[31]
  inhibition: 12.5%
[32]
  residual activity: 84%
[33]
  residual activity: 92%
[34]
  inhibition at 60 min, 10 µM: -4.3%
[35]
  residual activity: 100%
[36]
  residual activity: 96%
[37]
  residual activity: 88%
[38]
  % Inhibition of Control Specific Binding (Mean n=2): 10.5%
[39]
  inhibition: -2.34%
[40]
  % Inhibition of Control Specific Binding (Mean n=2): 19.2%
[41]
  residual activity: 100%
[42]
  residual activity: 100%
[43]
  residual activity: 96%
[44]
  residual activity: 67%

## CO[C@H]1CC[C@H](CNc2ccc(S(=O)(=O)NC(=O)c3ccc(N4CCN(CC5=C(c6ccc(Cl)cc6)CC(C)(C)CC5)CC4)cc3Oc3cnc4[nH]ccc4c3)cc2[N+](=O)[O-])CC1 [A-1211212]
[1]
  residual activity: 100%
[2]
  residual activity: 68%
[3]
  residual activity: 89%
[4]
  residual activity: 80%
[5]
  % Inhibition of Control Specific Binding (Mean n=2): 4.2%
[6]
  residual activity: 90%
[7]
  % Inhibition of Control Specific Binding (Mean n=2): 1.1%
[8]
  residual activity: 97%
[9]
  residual activity: 99%
[10]
  residual activity: 89%
[11]
  % Inhibition of Control Specific Binding (Mean n=2): -5%
[12]
  % Inhibition of Control Specific Binding (Mean n=2): 4.6%
[13]
  residual activity: 83%
[14]
  % Inhibition of Control Specific Binding (Mean n=2): 10.3%
[15]
  residual activity: 100%
[16]
  % Inhibition of Control Specific Binding (Mean n=2): 1.6%
[17]
  residual activity: 85%
[18]
  residual activity: 100%
[19]
  residual activity: 88%
[20]
  residual activity: 85%
[21]
  residual activity: 67%
[22]
  residual activity: 100%
[23]
  residual activity: 92%
[24]
  residual activity: 76%
[25]
  residual activity: 99%
[26]
  residual activity: 98%
[27]
  residual activity: 100%
[28]
  residual activity: 100%
[29]
  residual activity: 82%
[30]
  residual activity: 84%
[31]
  inhibition: 12.7%
[32]
  residual activity: 98%
[33]
  residual activity: 72%
[34]
  inhibition at 60 min, 10 µM: 16.9%
[35]
  residual activity: 100%
[36]
  residual activity: 100%
[37]
  residual activity: 94%
[38]
  % Inhibition of Control Specific Binding (Mean n=2): -1%
[39]
  inhibition: 3.54%
[40]
  % Inhibition of Control Specific Binding (Mean n=2): 1.9%
[41]
  residual activity: 90%
[42]
  residual activity: 89%
[43]
  residual activity: 81%
[44]
  residual activity: 70%
